# Experimental data reported in US20240390360A1, “Therapeutic Combinations Of Orally Administered Paclitaxel, A P-gp Inhibitor, And A Checkpoint Inhibitor For The Treatment Of Solid Tumors” (Athenex, Inc., priority 2021, published 2024).
# Experiments:
# [1] = test system: non-small cell lung cancer; test: Best responses of the NSCLC subjects to prior anti-PD-1/anti-PD-L1 therapy; type: in vivo, human; conditions: prior therapy before this study (five pembrolizumab, three nivolumab, two atezolizumab), all discontinued due to progressive disease
# [2] = test system: subjects with advanced solid tumours; type: in vivo
compound,measurement,setting,value
atezolizumab: prior immunotherapy (anti-PD-L1) of NSCLC subjects,"best response to the prior immunotherapy: SD, number of subjects",[1],1
same,"best response to the prior immunotherapy: response (non-RECIST), number of subjects",[1],1
COc1cc2c(cc1OC)CN(CCc1ccc(-n3nnc(-c4cc(OC)c(OC)cc4NC(=O)c4cc(=O)c5ccccc5o4)n3)cc1)CC2 [Compound A],recommended Phase 2 dose (RP2D),"[2]; QD Days 1-3 (Days 1-3, 8-10) for 2 weeks of a 3-week cycle, in combination with pembrolizumab",15 mg
"pembrolizumab: checkpoint inhibitor, administered intravenously","fatal pneumonitis, number","[2]; cohort six during cycle 8, attributed to pembrolizumab",One
